Data: patent US7173047B2, “Benzo (f) insoindol derivatives and their use as ep4 receptor ligands” (Glaxo Group Limited, priority 2000, dated 2007)

How the values were obtained:
human EP4 receptor [1] = biological target: T1, human EP4 receptor (Homo sapiens, UniProt P35408); experiment: [125I]cAMP Scintillation Proximity Assay (EP4 antagonist assay, HEK-293 cells expressing recombinant human EP4 receptor); type: cell-based; set-up: expressed in transfected cells; details: method of Arunlakshana and Schild, read-out: pKb (antagonist affinity) (converted)
T1 sequence (P35408 whole entry): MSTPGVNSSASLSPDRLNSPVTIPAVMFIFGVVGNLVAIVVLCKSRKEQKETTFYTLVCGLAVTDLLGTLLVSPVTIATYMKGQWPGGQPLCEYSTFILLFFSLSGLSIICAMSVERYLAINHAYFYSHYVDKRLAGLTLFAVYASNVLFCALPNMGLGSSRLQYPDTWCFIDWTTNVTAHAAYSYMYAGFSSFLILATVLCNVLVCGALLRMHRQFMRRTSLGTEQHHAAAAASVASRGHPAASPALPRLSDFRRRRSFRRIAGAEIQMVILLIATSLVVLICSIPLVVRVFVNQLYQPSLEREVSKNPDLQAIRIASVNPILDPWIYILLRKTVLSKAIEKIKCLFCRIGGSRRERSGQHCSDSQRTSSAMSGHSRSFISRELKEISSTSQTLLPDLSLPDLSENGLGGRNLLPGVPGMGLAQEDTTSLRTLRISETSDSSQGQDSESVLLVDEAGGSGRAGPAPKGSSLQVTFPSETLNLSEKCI
Experimental: The CAMP assay utilises HEK-293 cells expressing the recombinant human EP4 receptor, obtained from Receptor Biology, Inc. Beltsville, Md., USA. The cells were cultured in Dulbecco's Modified Eagle Medium—HAM F12 mix (DMEM-F12), containing 10% heat inactivated-foetal bovine serum (FBS) and 2 mM L-glutamine. The cells were either passaged into fresh medium or used in an assay once 90% confluency as determined visually had been achieved.
The cells were harvested by treatment with Versene, re-suspended in fresh culture medium and plated out to yield approximately 10,000 cells per well of a 96-well plate for overnight culture in culture medium additionally supplemented with 3 μM indomethacin. For assay, the culture medium was replaced with assay medium (DMEM-F12 containing 300 μM isobutylmethylxanthine (IBMX) and 3 μM indomethacin) and incubated for 30 minutes. Following this, antagonist was then added at various concentrations such that an entire agonist concentration-effect curve could be obtained in the presence of a single concentration of the antagonist. […] The amount of cAMP in each well was then determined by [^125I]cAMP scintillation proximity assay using a proprietary kit, obtained from Amersham, Buckinghamshire, UK, and according to the manufacturers instructions.
Data from cAMP assays were expressed as pmol CAMP per well. […]

human EP4 receptor [2] = biological target: T1, human EP4 receptor; experiment: Human EP4 Scintillation Proximity Assay ([3H]-prostaglandin E2 radioligand binding); set-up: expressed in transfected cells; host or cells: CHO cells infected with Semliki Forest Virus (SFV-1) particles; membranes; details: membranes of CHO cells expressing human EP4 receptor; 1.25 nM [3H]-prostaglandin E2; pKi from IC50 by Cheng-Prusoff; read-out: pKi at EP4 receptors (converted)
Source text: Quantification of radioligand binding by scintillation proximity assay (SPA) is a long-established principle. Briefly, the affinity of compounds for a receptor is assesssed by the specific competition between known quantities of radiolabelled ligand and compound for that receptor. Increasing concentrations of compound reduce the amount of radiolabel that binds to the receptor. This gives rise to a diminshing scintillation signal from SPA beads coated with membranes that bear the receptor. The signal may be detected with a suitable scintillation counter and the data generated may be analysed with suitable curve-fitting software.
The human EP4 SPA assay (hereafter referred to as ‘the assay’) utilises membranes prepared from Chinese Hamster Ovary (CHO cells) infected with Semilki Forest Virus (SFV). Genetically engineered SFV-1 viral particles containing the genetic sequence of the human EP4 receptor were used to infect CHO cells resulting in expression of the receptor protein in cellular membranes. Cells washed free of media are homogenised in a pH-buffered medium containing peptidase inhibitors. A suitable buffer is of the following composition: 50 mM HEPES, 1 mM EDTA, 25 μg/ml bacitracin, 100 μM leupeptin, 1 mM PMSF, 2 μM Pepstatin A, pH adjusted to 7.4 with KOH. Following removal of cell debris by a low-speed centrifugation, a pellet of membranes is prepared by a high-speed (48000 g) centrifugation of the resulting supernatant. Membrane suspensions such as that described may be stored at −80° C. until used.
For assay, membranes expressing human EP4 receptors are diluted in a pH-buffered medium and mixed with SPA beads coated with a suitable substance to facilitate the adhesion of membranes to the beads. The concentrations of membrane protein and SPA beads chosen should result in SPA binding signal of at least 300 corrected counts per minute (CCPM) when tritiated radioligand at a concentration close to its Kd (affinity value) is combined with the mixture. Non-specific binding (nsb) may be determined by competition between the radiolabelled ligand and a saturating concentration of unlabelled ligand. In order to quantify the affinity of EP4 receptor ligands, compounds are diluted in a stepwise manner across the wells of a 96-well plate. Radioligand, compound, and unlabelled ligand are then added to a 96-well plate suitable for the measurement of SPA binding signals prior to the addition of bead/membrane mixture to initiate the binding reaction. Equilibrium may be achieved by incubation at room temperature for 120 minutes prior to scintillation counting. The data so generated may be analysed by means of a computerised curve-fitting routine in order to quantify the concentration of compound that displaces 50% of the specific radioligand binding (IC50). The affinity (pKi) of the compound may be calculated from the IC50 by application of the Cheng-Prusoff correction. Suitable reagents and protocols are: reaction buffer containing 50 mM HEPES, 10 mM MgCl2, pH adjusted to 7.4 with KOH; SPA beads coated with wheatgerm agglutinin; 1.25 nM [^3H]-prostaglandin E2 as radioligand; 10 μM prostaglandin E2 as unlabelled ligand; a three-fold dilution series of compound starting at 10 μM and ending at 0.3 nM is adequate.

Row | SMILES | Kb (human EP4 receptor [1]) | Ki (human EP4 receptor [2])
1 | CCOc1c2c(c(OCC)c3ccccc13)C(=O)N(c1ccc(CC(=O)NS(=O)(=O)c3ccc(F)cc3)cc1)C2 [Example 1, N-{[4-(4,9-diethoxy-1-oxo-1,3-dihydro-2H-benzo[f]isoindol-2-yl)phenyl]acetyl}-4-fluorobenzenesulfonamide] | ≤ 100 nM | ≤ 100 nM
2 | CCOc1c2c(c(OCC)c3ccccc13)C(=O)N(c1ccc(CC(=O)NS(=O)(=O)c3ccccc3)cc1)C2 [Example 3, N-{2-[4-(4,9-diethoxy-1-oxo-1,3-dihydro-2H-benzo[f]isoindol-2-yl)phenyl]acetyl}benzenesulfonamide] | ≤ 100 nM | ≤ 100 nM
3 | CCOc1c2c(c(OCC)c3ccccc13)C(=O)N(c1ccc(CC(=O)NS(=O)(=O)c3ccccc3C)cc1)C2 [Example 4] |  | ≤ 100 nM
4 | CCOc1c2c(c(OCC)c3ccccc13)C(=O)N(c1ccc(CC(=O)NS(=O)(=O)c3ccc(C)cc3OC)cc1)C2 [Example 9] |  | ≤ 100 nM
5 | CCOc1c2c(c(OCC)c3ccccc13)C(=O)N(c1ccc(CC(=O)NS(=O)(=O)c3cccc(Br)c3)cc1)C2 [Example 10] |  | ≤ 100 nM
6 | CCOc1c2c(c(OCC)c3ccccc13)C(=O)N(c1ccc(CC(=O)NS(=O)(=O)c3cc(Br)ccc3OC)cc1)C2 [Example 12] |  | ≤ 100 nM
7 | CCOc1c2c(c(OCC)c3ccccc13)C(=O)N(c1ccc(CC(=O)NS(=O)(=O)c3cccc(OC)c3)cc1)C2 [Example 13] |  | ≤ 100 nM
8 | CCOc1c2c(c(OCC)c3ccccc13)C(=O)N(c1ccc(CC(=O)NS(=O)(=O)c3ccccc3C)cc1)C2=O [Example 14] |  | ≤ 100 nM
9 | CCOc1c2c(c(OCC)c3ccccc13)C(=O)N(c1ccc(CC(=O)NS(=O)(=O)c3ccccc3)cc1)C2=O [Example 15] |  | ≤ 100 nM
10 | CCOc1c2c(c(OCC)c3ccccc13)C(=O)N(c1ccc(CC(=O)NS(=O)(=O)c3cccc(Cl)c3)cc1)C2=O [Example 16] |  | ≤ 100 nM
11 | CCOc1c2c(c(OCC)c3ccccc13)C(=O)N(c1ccc(CC(=O)NS(=O)(=O)c3cccnc3)cc1)C2 [Example 30] |  | ≤ 100 nM
12 | CCOC(=O)CS(=O)(=O)NC(=O)Cc1ccc(N2Cc3c(c(OCC)c4ccccc4c3OCC)C2=O)cc1 [Example 34] |  | ≤ 100 nM
13 | CCOc1c2c(c(OCC)c3ccccc13)C(=O)N(c1ccc(CC(=O)NS(=O)(=O)c3cccs3)cc1)C2 [Example 35] |  | ≤ 100 nM
14 | CCOc1c2c(c(OCC)c3ccccc13)C(=O)N(c1ccc(CC(=O)NS(=O)(=O)c3ccc4ccccc4c3)cc1)C2 [Example 37] |  | ≤ 100 nM
